Data from paper PMC9405070, “Metabolic and Structural Insights into Hydrogen Sulfide Mis-Regulation in Enterococcus faecalis” (Antioxidants, 2022).

Legend:
[1] = target: T1, Ef Pta / EfPta (phosphotransacetylase) (Enterococcus faecalis, UniProt A0ACD6TAM5); assay: acetyl-CoA yield by LC-MS after […] s; format: biochemical; conditions: 150 uM CoASSH as in situ mixture with equimolar CoASH, excess Na2S and CoA disulfide; 5 mM acetylphosphate, pH 8.0, room temperature, anaerobic
T1 construct: Ni-NTA and Superdex G200; C182 in CoA pocket, R319, S318, D325 in active site

[2] = target: T1, Ef Pta / EfPta (phosphotransacetylase); assay: thioester formation at […] nm; format: biochemical; conditions: 5 mM acetylphosphate; 25 mM Tris-HCl, 40 mM KCl, pH 8.0, room temperature, anaerobic; 10 uM to 5 mM CoA
[3] = target: Enterococcus faecalis coenzyme A persulfide (CoASSH) reductase (Enterococcus faecalis strain OG1RF); assay: crystal structure; EfCoAPR as isolated from E. coli, with FAD and CoA (PAP moiety seen); crystals in 20% PEG 3350, 0.1 M Bis-Tris propane pH 6.50, 0.2 M sodium iodide; two molecules in the asymmetric unit; 2.05 Å
purified protein = substrate: CC(=O)SCCNC(=O)CCNC(=O)[C@H](O)C(C)(C)COP(=O)(O)OP(=O)(O)OC[C@H]1O[C@@H](n2cnc3c(N)ncnc32)[C@H](O)[C@@H]1OP(=O)(O)O; assay: purified protein; format: biochemical, Enterococcus faecalis; conditions: 5 mM KH2PO4, 25 mM Tris-HCl, 40 mM KCl, pH 8.0, room temperature, anaerobic, 10 uM to 5 mM acetyl-CoA

CC(C)(COP(=O)(O)OP(=O)(O)OC[C@H]1O[C@@H](n2cnc3c(N)ncnc32)[C@H](O)[C@@H]1OP(=O)(O)O)[C@@H](O)C(=O)NCCC(=O)NCCSS [CoASSH]
inhibition of acetyl-CoA formation [1]: This inhibition of activity was due to CoASSH specifically

CoA
Km [2]: 69 µM

Enterococcus faecalis coenzyme A persulfide (CoASSH) reductase
stoichiometry N [3]: 2

B1: Ef Pta / EfPta (phosphotransacetylase) (Enterococcus faecalis OG1RF) (protein)
chain: MYDGFCKYKTGGFIVELFDSLKFKVVRRNIKIVFPEATDPRILGAAARLKSDELVEPILIGDPTDIANAAMARGINTSNFIIINPNDYEKWDEMVEAFVERRNGKATKEDAEKILKDVNYFGTMLTYMGIADGMVSGAIHSTGDTVRPALQIIKTKPGVSRTSGAFLMIRGRDQERYLFSDCAINVNPTAQELAEIAVDSAKTAELFDIEPKVSLLSFSTKGSAKAPEVTKVAEATKIAQELAPEYAIDGELQFDASYVSSVAQLKAPNSKVAGEATVFVFPDLQSGNIGYKIAQRLGNFEAIGPILQGLNKPVSDLSRGANEEDVYKLSIITAAQTLMND
notes: Ni-NTA and Superdex G200; C182 in CoA pocket, R319, S318, D325 in active site
Km (purified protein): 57 (±16) μM
